Laboratory results taken from patent EP4685136A1, “AMINO LIPID, AND LIPID NANOPARTICLES AND USE THEREOF” (Shenzhen MagicRNA Biotechnology Co., Ltd., priority 2023, dated 2024).
Each block holds one compound with its values, some of them ahead of it.

Experiments:
[1] = Particle size and PDI of Luc-mRNA lipid nanoparticles (Nano-ZS ZEN3600, Malvern); format: physicochemical; settings: LNP of amino lipid:DSPC:cholesterol:DMG-PEG2000 47.5:10:41:1.5 with Luc-mRNA; lipid to mRNA mass ratio about 40:1
Method: (§1) The amino lipid compound of the present invention (or DLin-MC3 or SM-102 (both purchased from AVT (Shanghai) Pharmaceutical Technology Co., Ltd.)), phospholipid lipid (DSPC), cholesterol, and PEGylated lipid (DMG-PEG2000) were mixed and dissolved in anhydrous ethanol at a molar ratio of 47.5:10:41:1.5. The resulting ethanol solution and citric acid buffer (50 mM, pH = 4.0) dissolved with Luc-mRNA (TriLink) were mixed in a microfluidic chip at a volume ratio of 1:3 using a microfluidic preparation system to prepare a crude solution of lipid nanoparticles, which was then dialyzed in 1X PBS at 4°C for 6 h using a dialysis cassette (Fisher, MWCO 20,000). The product was filtered through a 0.22 µm microporous filter membrane before use. The mass ratio of the amino lipid compound to luciferase mRNA (Luc mRNA) was about 40:1.
The particle size and PDI (polydispersity index) of the prepared lipid nanoparticles were measured by Nano-ZSZEN3600 (Malvern). 20 µL of lipid nanoparticle (LNP) solution was taken for particle size measurement, and cycled three times with each cycle for 30 s.

[2] = Encapsulation efficiency of Luc-mRNA lipid nanoparticles (Quant-iT RiboGreen RNA Kit); format: physicochemical; settings: LNP of amino lipid:DSPC:cholesterol:DMG-PEG2000 47.5:10:41:1.5 with Luc-mRNA; lipid to mRNA mass ratio about 40:1
Method: as §1
The encapsulation efficiency was determined according to the standard procedure of the Quant-iT RiboGreen RNA Kit. Table 1 Characterization data of LNPs prepared using representative amino lipid compounds

primary BMDC cells = experiment: Transfection of Luc mRNA lipid nanoparticles on primary BMDC cells (ONE-Glo luciferase readout); format: cell-based, C57BL/6 mice; settings: expression intensity of Luc mRNA on BMDCs; 10 µL LNP per well, 20,000 cells per well, 12 hours
Method: Animal preparation: 6-week-old female C57BL/6 mice weighing about 20 g were selected and raised in an SPF-grade feeding room. Animal experiments were conducted strictly in accordance with the guidelines of the National Institutes of Health and animal ethics requirements.
Cell acquisition: C57BL/6 mice were sacrificed by cervical dislocation and immersed in 75% alcohol for 5 minutes for disinfection. The thigh and tibia of the mice were dissected and the attached muscles were removed to expose the bone. The bone marrow in the tibia was blown out with a 1 mL syringe filled with PBS. The obtained bone marrow was dispersed by blowing and filtered through a 50 µm filter mesh to remove impurities. Red blood cell lysis solution (3-4 mL) was added to the obtained filtrate and allowed to stand for 5 minutes. Then, the supernatant was removed by centrifugation at 800 g for 5 minutes. The obtained cells were placed in 1640 culture medium (containing 10% fetal bovine serum, 20 ng/mL GMCSF, 10 ng/mL IL4) for being resuspended, and inoculated into 6-well plates at a density of 100,000 cells/mL of culture medium. The plates were placed in a cell culture incubator containing 5% CO2 at 37°C, and the medium was half-changed every 2 days. On the seventh day, the suspended cells and loosely adherent cells were collected and inoculated into 96-well all-white ELISA plates at a density of 20,000 cells per well, with a culture medium volume of 100 µL.
Cell transfection: the lipid nanoparticles encapsulating luciferase mRNA were added to a 96-well all-white ELISA plate with spreaded primary cells, and the volume of mRNA lipid nanoparticles added to each well was controlled to be 10 µL. Then, the plate was placed in an incubator with 5% CO2 concentration at 37°C for 12 hours.
Transfection efficiency detection: 20 µL of substrate ONE-Glo™ Luciferase was added to each well of a 96-well all-white ELISA plate, and the assay was performed using a multifunctional microplate reader (Biorek SynergyH1) after 1 min. The expression intensity of Luc mRNA transfected on BMDCs by lipid nanoparticles (LNPs) composed of representative amino lipid compounds is shown in Table 2, with DLin-MC3 and SM0102 as controls. Table 2 Expression intensity of transfection of representative amino lipid compounds on BMDCs

SMILES: CCCCCCC(COC(=O)C(CCCCC)CCCCC)OC(=O)CCCCCN(CCCO)CCCCCC(=O)OC(CCCCCC)COC(=O)C(CCCCC)CCCCC (stereo not drawn) [E8CA5B6O3]
- Average particle size (nm) [1]: 69 nm
- PDI [1]: 0.06
- Encapsulation efficiency (%) [2]: 95.8%
- Luminescence intensity (primary BMDC cells): 2.3E+05

SMILES: CCCCCCC(COC(=O)CCCCC)OC(=O)CCCCCN(CCCCCC(=O)OC(CCCCCC)COC(=O)CCCCC)CCCOC(=O)CCCCCCN(C)C (stereo not drawn) [E8LA6B6O3A6]
- Average particle size (nm) [1]: 108 nm
- PDI [1]: 0.07
- Encapsulation efficiency (%) [2]: 97.6%
- Luminescence intensity (primary BMDC cells): 2.8E+05

SMILES: CCCCCCCCCCC(COC(=O)CCCCC)OC(=O)CCCCCN(CCCCCC(=O)OC(CCCCCCCCCC)COC(=O)CCCCC)CCCOC(=O)CCN1CCN(C)CC1 (stereo not drawn) [E12LA6B6O3A2]
- Luminescence intensity (primary BMDC cells): 4.0E+05

SMILES: CCCCCCCCCCC(COC(=O)CCCCC)OC(=O)CCCCCN(CCCCCC(=O)OC(CCCCCCCCCC)COC(=O)CCCCC)CCCOC(=O)CCCN1CCN(C)CC1 (stereo not drawn) [E12LA6B6O3A3]
- Average particle size (nm) [1]: 53 nm
- PDI [1]: 0.07
- Encapsulation efficiency (%) [2]: 94.6%

SMILES: CCCCCCCCCCC(COC(=O)CCCCC)OC(=O)CCCCCN(CCCCCC(=O)OC(CCCCCCCCCC)COC(=O)CCCCC)CCCOC(=O)C1CCN(C)CC1 (stereo not drawn) [E12LA6B6O3A7]
- Average particle size (nm) [1]: 110 nm
- PDI [1]: 0.05
- Encapsulation efficiency (%) [2]: 96.5%
- Luminescence intensity (primary BMDC cells): 7.3 E+04

SMILES: CCCCCCCCCCC(COC(=O)CCCCC)OC(=O)CCCCCN(CCCCCC(=O)OC(CCCCCCCCCC)COC(=O)CCCCC)CCCOC(=O)CCN1CCCCC1 (stereo not drawn) [E12LA6B6O3A8]
- Average particle size (nm) [1]: 124 nm
- PDI [1]: 0.06
- Encapsulation efficiency (%) [2]: 95.3%
- Luminescence intensity (primary BMDC cells): 1.9 E+05

SMILES: CCCCCCCCCCC(COC(=O)CCCCC)OC(=O)CCCCCN(CCCCCC(=O)OC(CCCCCCCCCC)COC(=O)CCCCC)CCN1CCCCC1 (stereo not drawn) [E12LA6B6O13]
- Average particle size (nm) [1]: 83 nm
- PDI [1]: 0.01
- Encapsulation efficiency (%) [2]: 94.4%

SMILES: CCCCCCCCCCC(COC(=O)CCCCC)OC(=O)CCCCCN(CCCCCC(=O)OC(CCCCCCCCCC)COC(=O)CCCCC)CCN1CCC(O)CC1 (stereo not drawn) [E12LA6B6O15]
- Average particle size (nm) [1]: 90 nm
- PDI [1]: 0.12
- Encapsulation efficiency (%) [2]: 95.2%

SMILES: CCCCCCCCCCC(CNC(=O)CCCCC)NC(=O)CCCCCN(CCCO)CCCCCC(=O)NC(CCCCCCCCCC)CNC(=O)CCCCC (stereo not drawn) [E12N2LA6B6O3]
- Average particle size (nm) [1]: 168 nm
- PDI [1]: 0.06
- Encapsulation efficiency (%) [2]: 90.3%

SMILES: CCCCCCCCCCC(CCCOC(=O)CCCCC)OC(=O)CCCCCN(CCCO)CCCCCC(=O)OC(CCCCCCCCCC)CCCOC(=O)CCCCC (stereo not drawn) [K4LA6B6O3]
- Average particle size (nm) [1]: 120 nm
- PDI [1]: 0.06
- Encapsulation efficiency (%) [2]: 98.9%
- Luminescence intensity (primary BMDC cells): 4.9 E+05

Continued, in another order:

- Average particle size (nm) [1]: 72 nm
- PDI [1]: 0.09
- Encapsulation efficiency (%) [2]: 95.67%
SMILES: CCCCCCCCCCCC(=O)OCC(CCCCCC)OC(=O)CCCCCN(CCCO)CCCCCC(=O)OC(CCCCCC)COC(=O)CCCCCCCCCCC (stereo not drawn) [E8LA12B6O3]

- Average particle size (nm) [1]: 80 nm
- PDI [1]: 0.03
- Encapsulation efficiency (%) [2]: 90.7%
SMILES: CCCCCCCCCCC(COC(=O)CCCCC)OC(=O)CCCCCN(CCCCCC(=O)OC(CCCCCCCCCC)COC(=O)CCCCC)CCCOC(=O)CCN(C)C (stereo not drawn) [E12LA6B6O3A4]

- Average particle size (nm) [1]: 117 nm
- PDI [1]: 0.08
- Encapsulation efficiency (%) [2]: 97.8%
SMILES: CCCCCCCCCCC(COC(=O)CCCCC)OC(=O)CCCCCN(CCCCCC(=O)OC(CCCCCCCCCC)COC(=O)CCCCC)CCCOC(=O)CCCCN(C)C (stereo not drawn) [E12LA6B6O3A5]
- Luminescence intensity (primary BMDC cells): 1.5 E+05

- Average particle size (nm) [1]: 95 nm
- PDI [1]: 0.11
- Encapsulation efficiency (%) [2]: 93.2%
SMILES: CCCCCCCCCCC(COC(=O)CCCCC)OC(=O)CCCCCN(CCCCC)CCCCCC(=O)OC(CCCCCCCCCC)COC(=O)CCCCC (stereo not drawn) [E12LA6B6O9]
- Luminescence intensity (primary BMDC cells): 2.2 E+05

- Average particle size (nm) [1]: 97 nm
- PDI [1]: 0.05
- Encapsulation efficiency (%) [2]: 97.6%
SMILES: CCCCCCCCCCC(COC(=O)CCCCC)OC(=O)CCCCCN(CCCCCC(=O)OC(CCCCCCCCCC)COC(=O)CCCCC)CCCN(C)C (stereo not drawn) [E12LA6B6O12]
- Luminescence intensity (primary BMDC cells): 4.9 E+04

- Average particle size (nm) [1]: 132 nm
- PDI [1]: 0.09
- Encapsulation efficiency (%) [2]: 95.6%
SMILES: CCCCCCCCCCCC(=O)OCC(CCCCCCCCCC)OC(=O)CCCCCN(CCCCCC(=O)OC(CCCCCCCCCC)COC(=O)CCCCCCCCCCC)CCCNC(=O)CCCN(C)C (stereo not drawn) [E12LA12B6O3A11]
- Luminescence intensity (primary BMDC cells): 1.4E+05

- Average particle size (nm) [1]: 73 nm
- PDI [1]: 0.09
- Encapsulation efficiency (%) [2]: 97.5%
SMILES: CCCCCCCCCCCC(=O)OCC(CCCCCCCCCC)OC(=O)CCCCCN(CCCO)CCCCCC(=O)OC(CCCCCCCCCC)COC(=O)CCCCCCCCCCC (stereo not drawn) [E12LA12B6O3]
- Luminescence intensity (primary BMDC cells): 4.1E+05

- Average particle size (nm) [1]: 121 nm
- PDI [1]: 0.14
- Encapsulation efficiency (%) [2]: 92.4%
SMILES: CCCCCCCCCCCC(=O)OCC(CCCCCCCCCC)OC(=O)CCCCCN(CCCCCC(=O)OC(CCCCCCCCCC)COC(=O)CCCCCCCCCCC)CCCC(=O)OCCCN(C)C (stereo not drawn) [E12LA12B6O30A9]
- Luminescence intensity (primary BMDC cells): 2.7 E+05

- Average particle size (nm) [1]: 117 nm
- PDI [1]: 0.08
- Encapsulation efficiency (%) [2]: 91.8%
SMILES: CCCCCCCCCCCC(=O)OCC(CCCCCCCCCC)OC(=O)CCCCCN(CCCCCC(=O)OC(CCCCCCCCCC)COC(=O)CCCCCCCCCCC)CCCC(=O)NCCCN(C)C (stereo not drawn) [E12LA12B6O30A10]
- Luminescence intensity (primary BMDC cells): 4.1E+05

- Average particle size (nm) [1]: 127 nm
- PDI [1]: 0.03
- Encapsulation efficiency (%) [2]: 98.2%
SMILES: CCCCCCCCCCCC(=O)OCC(CCCCCCCCCC)OC(=O)CCCCCN(CCCCCC(=O)OC(CCCCCCCCCC)COC(=O)CCCCCCCCCCC)CCCC(=O)O (stereo not drawn) [E12LA12B6O30]

- Average particle size (nm) [1]: 130 nm
- PDI [1]: 0.04
- Encapsulation efficiency (%) [2]: 98.4%
SMILES: CCCCCCCCCCCC(=O)OCC(CCCCCCCCCC)OC(=O)CCCCCN(CCCC#N)CCCCCC(=O)OC(CCCCCCCCCC)COC(=O)CCCCCCCCCCC (stereo not drawn) [E12LA12B6O31]
- Luminescence intensity (primary BMDC cells): 9.6 E+04

- Average particle size (nm) [1]: 106 nm
- PDI [1]: 0.03
- Encapsulation efficiency (%) [2]: 96.2%
SMILES: CCCCCCCCCCC(CCCCOC(=O)CCCCC)OC(=O)CCCCCN(CCCO)CCCCCC(=O)OC(CCCCCCCCCC)CCCCOC(=O)CCCCC (stereo not drawn) [K5LA6B6O3]
- Luminescence intensity (primary BMDC cells): 4.8E+05
